Four molecules from ChEMBL document CHEMBL1201862, “PubChem BioAssay data set” (2004) can be followed below.

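Where inhibition never reached the appropriate level, the endpoint shown equals the highest concentration tested. Otherwise, values were interpolated linearly from a five-concentration, 48-hour dose response in 96-well plates. GI50 is the concentration that inhibits growth by half.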 Calls of active or inactive are those of the source. Rule as the data show it: active = GI50 up to about 1.1 µM and inactive = higher.

Assay in all cases: NCI-60 cell line screen, 48 h
In experiment [1] the test system is 786-0.
The subject of experiment [2] is A549.
Experiment [3] relates to HCT-15.
Experiment [4] relates to HOP-62.
Experiment [5] has as its system HT-29.
Experiment [6] has as its system IGROV-1.
For experiment [7], the system named is MDA-MB-231.
For experiment [8], the system named is Malme-3M.
The test system of experiment [9] is OVCAR-3.
Experiment [10] relates to OVCAR-4.
Experiment [11] relates to OVCAR-5.
For experiment [12], the system named is SF-295.
Experiment [13] deals with SK-MEL-28.
Experiment [14] concerns SN12C.
In experiment [15] the test system is SNB-19.
Experiment [16] has as its system SR.
In experiment [17] the test system is U-251.
Experiment [18] has as its system UACC-257.
Experiment [19] deals with UACC-62.

Regarding `Cc1cc(S(=O)(=O)n2ccnc2O)c(SCCCN(C)C)cc1Cl`, the GI50 in [1] is > 100 µM (inactive); in experiment [2] it was > 100 µM (inactive); in experiment [3] it was more than 100 µM; in [4] it was > 100 µM (inactive); in experiment [5], > 100 µM (inactive); in experiment [6] it was > 100 µM (inactive). For the same molecule, the GI50 in [7], in [8], in experiment [9], in experiment [10], in [11] and in experiment [12] was > 100 µM (inactive) throughout. Further, the GI50 in experiment [13], in experiment [14], in experiment [15], in [16], in experiment [17] and in [18] was > 100 µM (inactive) in each case. Also, the GI50 in experiment [19] was > 100 µM (inactive).
On to `CC1OC(OC2C(CO)OC(O[C@H]3CC[C@@]4(C)C(=CC[C@H]5[C@@H]6C[C@@H]7O[C@](O)(CC[C@H](CO)COC8OC(CO)C(O)C(O)C8O)[C@@H](C)[C@@H]7[C@@]6(C)CC[C@@H]54)C3)C(OC3OC(C)C(O)C(O)C3O)C2O)C(O)C(O)C1O` (stereo partly specified), for which the GI50 is > 100 µM (inactive) in experiment [1]; > 100 µM (inactive) in experiment [2]; 54 µM in experiment [3]; > 100 µM (inactive) in [4]; > 100 µM (inactive) in experiment [5]; > 100 µM (inactive) in experiment [6]. The GI50 in experiment [7], in experiment [8], in experiment [9], in experiment [10], in [11] and in experiment [12] was > 100 µM (inactive) throughout. The GI50 in experiment [13], in [14], in experiment [15], in experiment [16], in experiment [17] and in experiment [18] was > 100 µM (inactive) throughout. In addition, the GI50 in experiment [19] was > 100 µM (inactive).
Regarding `O=C(CSC1=NCCN1)Nc1ccccc1`, the GI50 in [1] was 16.1 µM (inactive); in experiment [2], > 100 µM (inactive); in experiment [3], 29.2 µM; in experiment [4] it was 48 µM (inactive); in experiment [5], 31.4 µM (inactive); in experiment [6], 33.4 µM (inactive). In addition, the GI50 in [7] is 20.6 µM (inactive); in experiment [8] it was 24.8 µM (inactive); in experiment [9], 20.7 µM (inactive); in experiment [10] it was 65.8 µM (inactive); in experiment [11], 29.3 µM (inactive); in [12] it was 29.4 µM (inactive). In addition, the GI50 was 26.3 µM (inactive) in [13]; 17.5 µM (inactive) in experiment [14]; 69.3 µM (inactive) in [15]; 44.3 µM (inactive) in experiment [16]; 18.3 µM (inactive) in [17]; 17.1 µM (inactive) in experiment [18]. The GI50 in [19] was 22.1 µM (inactive).
With `C[C@H](N)C(=O)N[C@@H]1[C@H]2C(=C(O)C[C@@H](O)[C@@H]2O)C(=O)O[C@]1(C)C(Cl)Cl` [BACTOBOLIN], the GI50 in experiment [1] is 0.0655 µM (active); in [2] it was 0.187 µM (active); in experiment [3] it was 0.597 µM; in experiment [4], 0.152 µM (active); in experiment [5] it was 0.155 µM (active); in experiment [6], 0.361 µM (active). Further, the GI50 was 0.156 µM (active) in experiment [7]; 0.278 µM (active) in experiment [8]; 0.34 µM (active) in [9]; 0.133 µM (active) in [10]; 0.604 µM (active) in experiment [11]; 0.18 µM (active) in experiment [12]. Moreover, the GI50 in experiment [13] is 0.234 µM (active); in [14] it was 0.164 µM (active); in [15], 0.167 µM (active); in experiment [16] it was 0.0776 µM (active); in [17], 0.144 µM (active); in experiment [18], 0.378 µM (active). Further, the GI50 in [19] is 0.23 µM (active).
